# Values joined by “and” are separate entries in the source; they are usually repeats but may differ in a detail not shown here. Identical values can stand only once. Like-named read-outs stand apart in the source and are kept apart here. Marks after values point to notes of the source that are not given here.
# Legend:
# [1] = Absorbance and fluorescence spectroscopy of coumarin amides (λmax, molar extinction coefficient, quantum yield); assay type: physicochemical; details: for ε405 nm (molar extinction coefficient): 405 nm, 10% DMSO; for ε405 nm (molar extinction coefficient) / Φ (quantum yield): PBS; for Φ (quantum yield) / Abs. λmax / Em. λmax: 1% DMSO; for Φ (quantum yield): relative to 30; for Abs. λmax / Em. λmax: aqueous PBS
# Procedure: FIG. […] FIG. 4B depicts the determination of molar extinction coefficients (ε405 nm) of 26-28 as previously described in J. Am. Chem. Soc. […] The integrated fluorescence intensity (Ex. 405 nm, Em. 420-700 nm) was plotted against the maximum absorbance of the sample at the concentration studied (100 nM-6.25 nM) as extrapolated from absorbance measurements at higher concentrations. The slope determined by linear least squares (zero intercept) is proportional to the quantum yield. Spectra were acquired with a BMG LabTech ClarioStar Plus microtiterplate reader.
# physchem = details: aqueous buffers of varied pH
# [2] = cited from earlier work; for ε405 nm (molar extinction coefficient): 405 nm, PBS, 10% DMSO, previously described; for Φ (quantum yield): pH 7.4, 1% DMSO, based on a previously reported PB-biotin amide
# [3] = literature; cited from earlier work
# [4] = system: microtubules of living HeLa cells; details: for Kd: read-out: cellular Kd
# purified microtubules = details: literature; cited from earlier work
# HeLa cells = details: 3 h, 37° C., absence of verapamil
# HEK293T cells = test: Cytotoxicity by propidium iodide staining in the FPCBA with DDR1-expressing cells; assay type: cell-based; details: living HEK293T cells, FPCBA competition experiments, [6FC-Dasatinib]=1 μM
# Procedure: FIGS. 6A and 6B depict a fluorescent probe cellular binding assay (FPCBA) with 6FC-Dasatanib and native DDR1 kinase (IRES-mVenus). (FIG. 6A) Binding of 6FC-Dasatanib to native DDR1 expressed in living HEK293T cells by flow cytometry (2 h, 37° C.). (FIG. 6B) Competition experiments against native DDR1 in living HEK293T cells with the kinase inhibitors ponatinib and dasatinib by flow cytometry. [6FC-Dasatinib]=1 μM.
# The previously reported FPCBA approach (Yin, Y. et al. J Am. Chem. Soc. 2024, 146 (1), 187-200) was used to analyze binding of small molecules to native full length DDR1 kinase overexpressed in living HEK293T cells (IRES-mVenus vector) by flow cytometry.
# [5] = living HeLa cells, 3 h, 37° C., absence of verapamil
# [6] = living HeLa cells, 3 h, 37° C., presence of verapamil (100 μM)
molecule,measurement,setting,value
"CCCCCCNC(=O)c1cc2c(F)cc(O)cc2oc1=O [Compound 26, 5-Fluoro-N-hexyl-7-hydroxy-2-oxo-2H-chromene-3-carboxamide]",ε405 nm (molar extinction coefficient),[1]; pH 7.4,"25,000 (7.4) M^−1 cm^−1"
same,Φ (quantum yield),[1]; pH 7.4,0.73
same,Abs. λmax,[1]; pH 7.4,400 nm
same,Em. λmax,[1]; pH 7.4,449 nm
same,pKa,physchem,6.9
"CCCCCCNC(=O)c1cc2cc(F)c(O)c(F)c2oc1=O [Compound 30, 6,8-Difluoro-N-hexyl-7-hydroxy-2-oxo-2H-chromene-3-carboxamide, reference compound]",Abs. λmax,[1]; pH 7.4,403 nm
same,Em. λmax,[1]; pH 7.4,447 nm
same,ε405 nm (molar extinction coefficient),[2]; pH 7.4,"29,000 (7.4) M^−1 cm^−1"
same,Φ (quantum yield),[2],0.74
same,Φ (quantum yield),[2]; listed as PB-hexanamide (30),0.74^‡
same,pKa,physchem,4.1
COC(=O)c1cc2cc(F)c(O)c(F)c2oc1=O [PB methyl ester],pKa of the phenol,[3],3.7
"CC(=O)O[C@H]1C(=O)[C@]2(C)[C@@H](OC(=O)CCCNC(=O)c3cc4ccc(O)c(F)c4oc3=O)C[C@H]3OC[C@@]3(OC(C)=O)[C@H]2[C@H](OC(=O)c2ccccc2)[C@]2(O)C[C@H](OC(=O)[C@H](O)[C@@H](NC(=O)c3ccccc3)c3ccccc3)C(C)=C1C2(C)C [Compound 10, (2aR,4S,4aS,6R,9S,11S,12S,12bS)-9-(((2R,3S)-3-Benzamido-2-hydroxy-3-phenylpropanoyl)oxy)-12-(benzoyloxy)-4-((4-(8-fluoro-7-hydroxy-2-oxo-2H-chromene-3-carboxamido)butanoyl)oxy)-11-hydroxy-4a,8,13,13-tetramethyl-5-oxo-3,4,4a,5,6,9,10,11,12,12a-decahydro-1H-7,11-methanocyclodeca[3,4]benzo[1,2-b]oxete-6,12b(2aH)-diyl diacetate]",Kd,[4]; [5],3500 nM
same,Kd,[4]; [6],230 nM
"CC(=O)O[C@H]1C(=O)[C@]2(C)[C@@H](OC(=O)CCCNC(=O)c3cc4cc(F)c(O)cc4oc3=O)C[C@H]3OC[C@@]3(OC(C)=O)[C@H]2[C@H](OC(=O)c2ccccc2)[C@]2(O)C[C@H](OC(=O)[C@H](O)[C@@H](NC(=O)c3ccccc3)c3ccccc3)C(C)=C1C2(C)C [Compound 9, (2aR,4S,4aS,6R,9S,11S,12S,12bS)-9-(((2R,3S)-3-benzamido-2-hydroxy-3-phenylpropanoyl)oxy)-12-(benzoyloxy)-4-((4-(6-fluoro-7-hydroxy-2-oxo-2H-chromene-3-carboxamido)butanoyl)oxy)-11-hydroxy-4a,8,13,13-tetramethyl-5-oxo-3,4,4a,5,6,9,10,11,12,12a-decahydro-1H-7,11-methanocyclodeca[3,4]benzo[1,2-b]oxete-6,12b(2aH)-diyl diacetate]",Kd,[4]; [5],2400 nM
same,Kd,[4]; [6],150 nM
"CCCCCCNC(=O)c1cc2cc(F)c(O)cc2oc1=O [Compound 27, 6-Fluoro-N-hexyl-7-hydroxy-2-oxo-2H-chromene-3-carboxamide]",ε405 nm (molar extinction coefficient),[1]; pH 7.4,"37,000 M^−1 cm^−1"
same,ε405 nm (molar extinction coefficient),"[1]; pH 7.4, listed as 6FC-hexanamide (27)","37,000 M^−1 cm^−1 and 37,000 (7.4) M^−1 cm^−1"
same,Φ (quantum yield),[1]; pH 7.4,0.84
same,Abs. λmax,[1]; pH 7.4,401 nm
same,Em. λmax,[1]; pH 7.4,451 nm
same,Brightness (product of molar extinction coefficient and quantum yield) relative to PB-hexanamide (30),[1]; pH 7.4,145%
same,pKa,physchem,6.5
"CCCCCCNC(=O)c1cc2ccc(O)c(F)c2oc1=O [Compound 28, 8-Fluoro-N-hexyl-7-hydroxy-2-oxo-2H-chromene-3-carboxamide]",ε405 nm (molar extinction coefficient),[1]; pH 7.4,"28,000 (7.4) M^−1 cm^−1"
same,Φ (quantum yield),[1]; pH 7.4,0.69
same,Abs. λmax,[1]; pH 7.4,402 nm
same,Em. λmax,[1]; pH 7.4,457 nm
same,pKa,physchem,6
"O=C(O)c1cc2ccc(O)cc2oc1=O [Compound 1, 7-hydroxycoumarin-3-carboxylic acid]",pKa of the phenol,[3],7.0-7.5
"CCCCCCNC(=O)c1cc2ccc(O)cc2oc1=O [Compound 29, N-Hexyl-7-hydroxy-2-oxo-2H-chromene-3-carboxamide, reference compound]",Φ (quantum yield),[1]; pH 7.4,0.35
same,Φ (quantum yield),[1]; pH 10,0.62
same,Abs. λmax,[1]; pH 7.4,401 nm
same,Em. λmax,[1]; pH 7.4,447 nm
same,ε405 nm (molar extinction coefficient),[2]; pH 10,"22,000 (10) M^−1 cm^−1"
same,pKa,physchem,7.3
"CC(=O)O[C@H]1C(=O)[C@]2(C)[C@@H](OC(=O)CCCNC(=O)c3cc4c(F)cc(O)cc4oc3=O)C[C@H]3OC[C@@]3(OC(C)=O)[C@H]2[C@H](OC(=O)c2ccccc2)[C@]2(O)C[C@H](OC(=O)[C@H](O)[C@@H](NC(=O)c3ccccc3)c3ccccc3)C(C)=C1C2(C)C [Compound 8, (2aR,4S,4aS,6R,9S,11S,12S,12bS)-9-(((2R,3S)-3-benzamido-2-hydroxy-3-phenylpropanoyl)oxy)-12-(benzoyloxy)-4-((4-(5-fluoro-7-hydroxy-2-oxo-2H-chromene-3-carboxamido)butanoyl)oxy)-11-hydroxy-4a,8,13,13-tetramethyl-5-oxo-3,4,4a,5,6,9,10,11,12,12a-decahydro-1H-7,11-methanocyclodeca[3,4]benzo[1,2-b]oxete-6,12b(2aH)-diyl diacetate]","S/B (maximal signal-to-background, fold change)","[4]; 0.4 μM probe, absence of verapamil",7 fold
same,cellular Kd,[4]; [5],low affinity prevented accurate determination
same,Kd,[4]; [6],150 nM
CC(=O)O[C@H]1C(=O)[C@@]2(C)[C@H]([C@H](OC(=O)c3ccccc3)[C@]3(O)C[C@H](OC(=O)[C@H](O)[C@@H](NC(=O)c4ccccc4)c4ccccc4)C(C)=C1C3(C)C)[C@]1(OC(C)=O)CO[C@@H]1C[C@@H]2O [paclitaxel],Ki,purified microtubules,19 nM and 27 nM and 31 nM
"(2aR,4S,4aS,6R,9S,11S,12S,12bS)-9-(((2R,3S)-3-benzamido-2-hydroxy-3-phenylpropanoyl)oxy)-12-(benzoyloxy)-11-hydroxy-4-((4-(7-hydroxy-2-oxo-2H-chromene-3-carboxamido)butanoyl)oxy)-4a,8,13,13-tetramethyl-5-oxo-3,4,4a,5,6,9,10,11,12,12a-decahydro-1H-7,11-methanocyclodeca[3,4]benzo[1,2-b]oxete-6,12b(2aH)-diyldiacetate [Compound 6]",Cellular uptake,HeLa cells,high cellular uptake
"Cc1nc(Nc2ncc(C(=O)Nc3c(C)cccc3Cl)s2)cc(N2CCN(CCOCCNC(=O)c3cc4cc(F)c(O)cc4oc3=O)CC2)n1 [6FC-Dasatinib, N-(2-chloro-6-methylphenyl)-2-((6-(4-(2-(2-(6-fluoro-7-hydroxy-2-oxo-2H-chromene-3-carboxamido)ethoxy)ethyl)piperazin-1-yl)-2-methylpyrimidin-4-yl)amino)thiazole-5-carboxamide]",Cytotoxicity (propidium iodide staining),HEK293T cells,No cytotoxicity was observed
"O=C(O)c1cc2cc(F)c(O)c(F)c2oc1=O [Compound 2, Pacific Blue]",pKa of the phenol,[3],4.7

# Source: patent US20260258021A1, “MONOFLUORINATED COUMARIN FLUOROPHORES AND USES THEREOF” (Ohio State Innovation Foundation, priority 2023, published 2026)
